Tested on: D5 Th1 T cell line
Assay: nucleic acid expression profile of D5 Th1 T cell line stimulated with 500 nM ionomycin, 1 μM CsA plus ionomycin or 20 nM PMA plus ionomycin; 11K chip, first replicate
Format: cell-based, murine
Parameters: expression level of Msa.15983.0_f_at / expression level of Msa.1669.0_f_at / expression level of Msa.18713.0_g_at / expression level of D86609_s_at / expression level of TC19211_at / expression level of TC21156_at / expression level of TC24045_at / expression level of TC30384_g_at / expression level of TC3225_at / expression level of TC38978_at / expression level of TC39080_at / expression level of TC17495_at: unit not given here
Protocol: D5 or primary T cells from NFAT1−/− or wild type DO11.10 transgenic mice were stimulated for 2, 6 or 16 hours with 500 nM ionomycin, 20 nM PMA plus 500 nM ionomycin, or 1 μM CsA plus 500 nM ionomycin. Total RNA was isolated with an RNeasy kit (QIAGEN). Ten μg of total RNA was quantitatively amplified and biotin-labeled as described (Byrne et al., (2000) “Preparation of mRNA for Expression Monitoring” Current Protocols in Molecular Biology (John Wiley & Sons, Inc.) pp. 22.22.21-22.22.13). Hybridization to GeneChips® (Affymetrix) displaying probes for 11,000 mouse genes/ESTs was performed at 40° C. overnight in a mix that included 10 μg fragmented RNA, 6× SSPE, 0.005% Triton X-100 and 100 μg/ml herring sperm DNA in a total volume of 200 μl. Chips were washed, stained with SA-PE and read using an Affymetrix GeneChip® scanner and accompanying gene expression software. Labeled bacterial RNAs of known concentration were spiked into each chip hybridization mix to generate an internal standard curve, allowing normalization between chips and conversion of raw hybridization intensity values to mRNA frequency (mRNA molecules per million).
Nucleic acid expression profiles were obtained from a T cell line at multiple time points and in various T cell states. The D5 Th1 T cell line was stimulated in three different ways: 1) ionomycin alone (e.g., causing the regulatory factor NFAT to move from the cytoplasm to the nucleus); 2) ionomycin+PMA (e.g., causing both NFAT and the transcription factor AP-1 to enter the nucleus); 3) ionomycin +cyclosporin A (CsA) (e.g., preventing NFAT from entering the nucleus in response to ionomycin). […] Cells were stimulated for 0, 2, 6, and 16 hours. RNA was isolated and analyzed on a nucleic acid chip with probes that monitor the expression of 11,000 nucleic acids located at unique addresses. The experiment was done twice (i.e., with two replicates, Rep. 1 and Rep. 2). Nucleic acid expression at the 2, 6 and 16 hour timepoints was compared to nucleic acid expression at 0 hours.
The nucleic acid expression data was stored in a computer database. A database query was used to identify all nucleic acids that were deemed “increasing” or “decreasing” in response to ionomycin (relative to the 0 hour sample) in at least one timepoint in Rep. 1, and the nucleic acids were also deemed “increasing” or “decreasing” in response to ionomycin in Rep. 2.
To test the hypothesis that NFAT in the absence of AP-1 and NFKB induced a genetic program of anergy, genes induced in D5 T cells by ionomycin stimulation alone were evaluated (FIGS. 1, 2 and 6). Samples from D5 cells stimulated with ionomycin plus CsA, which blocks anergy induction, and ionomycin plus PMA, which pharmacologically mimic complete stimulation through the TCR and CD28 were included. RNA was prepared from unstimulated D5 T cells and from cells stimulated for 2, 6 or 16 h under these three conditions, and gene transcription profiles were evaluated using Affymetrix oligonucleotide arrays (FIG. 6A).

**Q.** Which “expression level of D86609_s_at” value (2 h) does the source give for `C[C@H](CCC(=O)O)C[C@H](C)C[C@H](C)C(=O)/C=C(\O)[C@H](C)C[C@H](C)C/C=C/[C@@H](C)[C@@H](O)[C@@H](C)[C@@H](O)C[C@@H]1CC[C@@](C)([C@H]2CC[C@@](C)([C@@H](C)O)O2)O1` [Ionomycin, ionomycin] here?
**A.** 48

**Q.** And the “expression level of ET63436_at” value (2 h)?
**A.** 149

**Q.** And the “expression level of MIP1-B_at” value (2 h)?
**A.** 265.5

**Q.** What about the “expression level of Msa.11439.0_s_at” value (2 h) of the same compound?
**A.** 37

**Q.** And the “expression level of Msa.15983.0_f_at” value (2 h)?
**A.** 40

**Q.** And the “expression level of Msa.1669.0_f_at” value (2 h)?
**A.** 33

**Q.** What about the “expression level of Msa.18713.0_g_at” value (2 h) of the same compound?
**A.** 63

**Q.** What about the “expression level of Msa.21745.0_s_at” value (2 h) of the same compound?
**A.** 9

**Q.** And the “expression level of TC3225_at” value (2 h)?
**A.** 41

**Q.** And the “expression level of TC14671_g_at” value (2 h)?
**A.** 15

**Q.** What about the “expression level of TC16364_at” value (2 h) of the same compound?
**A.** 38

**Q.** And the “expression level of TC16828_at” value (2 h)?
**A.** 13

**Q.** And the “expression level of TC17132_at” value (2 h)?
**A.** 41

**Q.** And the “expression level of TC17495_at” value (2 h)?
**A.** 10

**Q.** And the “expression level of TC17558_at” value (2 h)?
**A.** 28

**Q.** What about the “expression level of TC18221_at” value (2 h) of the same compound?
**A.** 6

**Q.** And the “expression level of TC19211_at” value (2 h)?
**A.** 21

**Q.** What about the “expression level of TC21156_at” value (2 h) of the same compound?
**A.** 34

**Q.** What about the “expression level of TC23346_s_at” value (2 h) of the same compound?
**A.** 8

**Q.** And the “expression level of TC23450_s_at” value (2 h)?
**A.** 20

**Q.** What about the “expression level of TC24045_at” value (2 h) of the same compound?
**A.** 26

**Q.** And the “expression level of TC24067_at” value (2 h)?
**A.** 8

**Q.** And the “expression level of TC25965_at” value (2 h)?
**A.** 19

**Q.** And the “expression level of TC27326_g_at” value (2 h)?
**A.** 40

**Q.** What about the “expression level of TC29889_at” value (2 h) of the same compound?
**A.** 17

**Q.** What about the “expression level of TC30384_g_at” value (2 h) of the same compound?
**A.** 77

**Q.** What about the “expression level of TC30935_at” value (2 h) of the same compound?
**A.** 30

**Q.** And the “expression level of TC30992_s_at” value (2 h)?
**A.** 14

**Q.** What about the “expression level of TC31681_at” value (2 h) of the same compound?
**A.** 52

**Q.** What about the “expression level of TC33206_at” value (2 h) of the same compound?
**A.** 20

**Q.** What about the “expression level of TC33833_at” value (2 h) of the same compound?
**A.** 19

**Q.** And the “expression level of TC34186_at” value (2 h)?
**A.** 19

**Q.** What about the “expression level of TC36089_at” value (2 h) of the same compound?
**A.** 145

**Q.** What about the “expression level of TC36583_at” value (2 h) of the same compound?
**A.** 26

**Q.** What about the “expression level of TC37631_at” value (2 h) of the same compound?
**A.** 38

**Q.** What about the “expression level of TC38094_at” value (2 h) of the same compound?
**A.** 13

**Q.** What about the “expression level of TC38978_at” value (2 h) of the same compound?
**A.** 9

**Q.** What about the “expression level of TC39012_at” value (2 h) of the same compound?
**A.** 47

**Q.** What about the “expression level of TC39080_at” value (2 h) of the same compound?
**A.** 7

**Q.** What about the “expression level of TC39762_at” value (2 h) of the same compound?
**A.** 17

**Q.** And the “expression level of TC40487_g_at” value (2 h)?
**A.** 14

**Q.** And the “expression level of TC41014_at” value (2 h)?
**A.** 9

**Q.** And the “expression level of U44731_s_at” value (2 h)?
**A.** 80

**Q.** And the “expression level of X67914_s_at” value (2 h)?
**A.** 59

**Q.** And the “expression level of Z31202_s_at” value (2 h)?
**A.** 17

**Q.** What about the “expression level of aa144045_s_at” value (2 h) of the same compound?
**A.** 46

**Q.** What about the “expression level of aa174748_at” value (2 h) of the same compound?
**A.** 55

**Q.** And the “expression level of c81206_rc_at” value (2 h)?
**A.** 23

**Q.** What about the “expression level of k00083_s_at” value (2 h) of the same compound?
**A.** 54

**Q.** And the “expression level of x12531_s_at” value (2 h)?
**A.** 81

**Q.** What about the “expression level of D86609_s_at” value (6 h) of the same compound?
**A.** 21

**Q.** And the “expression level of ET63436_at” value (6 h)?
**A.** 82

**Q.** And the “expression level of MIP1-B_at” value (6 h)?
**A.** 102

**Q.** And the “expression level of Msa.11439.0_s_at” value (6 h)?
**A.** 31

**Q.** What about the “expression level of Msa.15983.0_f_at” value (6 h) of the same compound?
**A.** 33

**Q.** And the “expression level of Msa.1669.0_f_at” value (6 h)?
**A.** 38

**Q.** And the “expression level of Msa.18713.0_g_at” value (6 h)?
**A.** 35

**Q.** What about the “expression level of Msa.21745.0_s_at” value (6 h) of the same compound?
**A.** 6

**Q.** And the “expression level of TC3225_at” value (6 h)?
**A.** 44

**Q.** And the “expression level of TC14671_g_at” value (6 h)?
**A.** 19

**Q.** And the “expression level of TC16364_at” value (6 h)?
**A.** 42

**Q.** What about the “expression level of TC16828_at” value (6 h) of the same compound?
**A.** 48

**Q.** And the “expression level of TC17132_at” value (6 h)?
**A.** 54

**Q.** What about the “expression level of TC17495_at” value (6 h) of the same compound?
**A.** 9

**Q.** And the “expression level of TC17558_at” value (6 h)?
**A.** 26

**Q.** And the “expression level of TC18221_at” value (6 h)?
**A.** 8

**Q.** What about the “expression level of TC19211_at” value (6 h) of the same compound?
**A.** 17

**Q.** What about the “expression level of TC21156_at” value (6 h) of the same compound?
**A.** 33

**Q.** What about the “expression level of TC23346_s_at” value (6 h) of the same compound?
**A.** 11

**Q.** What about the “expression level of TC23450_s_at” value (6 h) of the same compound?
**A.** 12

**Q.** What about the “expression level of TC24045_at” value (6 h) of the same compound?
**A.** 21

**Q.** And the “expression level of TC24067_at” value (6 h)?
**A.** 23

**Q.** And the “expression level of TC25965_at” value (6 h)?
**A.** 18

**Q.** And the “expression level of TC27326_g_at” value (6 h)?
**A.** 33

**Q.** And the “expression level of TC29889_at” value (6 h)?
**A.** 15
